Experimental data reported in PubChem BioAssay (NCI).
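96-well plates; 48 h exposure; 5 concentrations. Endpoints by linear interpolation between flanking doses. Not reached: highest tested concentration assigned. Here, GI50 denotes the concentration required for 50% inhibition of growth. TGI denotes the concentration required for complete inhibition of growth.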

Tests used:
Assay in all cases: growth of human tumour cells (NCI), 48 h
A549 NSCLC = test system: A549 NSCLC
ACHN renal = test system: ACHN renal
CAKI-1 renal = test system: CAKI-1 renal
COLO 205 colon = test system: COLO 205 colon
HOP-92 NSCLC = test system: HOP-92 NSCLC
M14 melanoma = test system: M14 melanoma
NCI-H226 lung = test system: NCI-H226 lung
SF-539 CNS = test system: SF-539 CNS
SNB-75 CNS = test system: SNB-75 CNS
SW-620 colon = test system: SW-620 colon

| Compound | GI50 (A549 NSCLC) | TGI (A549 NSCLC) | GI50 (ACHN renal) | TGI (ACHN renal) | GI50 (CAKI-1 renal) | TGI (CAKI-1 renal) | GI50 (COLO 205 colon) | TGI (COLO 205 colon) | GI50 (HOP-92 NSCLC) | TGI (HOP-92 NSCLC) | GI50 (M14 melanoma) | TGI (M14 melanoma) | GI50 (NCI-H226 lung) | TGI (NCI-H226 lung) | GI50 (SF-539 CNS) | TGI (SF-539 CNS) | GI50 (SNB-75 CNS) | TGI (SNB-75 CNS) | GI50 (SW-620 colon) | TGI (SW-620 colon) |
| --- | --- | --- | --- | --- | --- | --- | --- | --- | --- | --- | --- | --- | --- | --- | --- | --- | --- | --- | --- | --- |
| OCC#CCCCCOCC#Cc1ccccc1C#CCOCCCCC#CCO | 39.8 µM | > 100 µM | 21.7 µM | 58.7 µM | 27.2 µM | 64.8 µM | 27.1 µM | > 100 µM | 28.8 µM | 62 µM | 31.2 µM | > 100 µM | 23.7 µM | 59 µM | 17.6 µM | 33.2 µM | 20.6 µM | 66.2 µM | 21.9 µM | 50.9 µM |
| NC1=NCC(c2ccccn2)C1c1ccc(F)cc1 (centres undefined) |  | > 100 µM |  | > 100 µM |  | > 100 µM |  | > 100 µM |  | > 100 µM |  | > 100 µM |  | > 100 µM |  | > 100 µM |  | > 100 µM |  | > 100 µM |
| Oc1cc2c(cc1C(c1ccc3c(c1)OCO3)N1CCN(C(c3ccc4c(c3)OCO4)c3cc4c(cc3O)OCO4)CC1)OCO2 (centres undefined) |  | > 100 µM |  | 26.6 µM |  | 47.9 µM |  | 90.8 µM |  | 78.3 µM |  | 27.5 µM |  | 29.6 µM |  | 33.9 µM |  | 13.7 µM |  | 25.3 µM |
| Cc1ccccc1NC(=O)C(=O)CC(=O)C1CCOC1=O (centres undefined) |  | > 100 µM |  | > 100 µM |  | > 100 µM |  | > 100 µM |  | > 100 µM |  | > 100 µM |  | > 100 µM |  | > 100 µM |  | > 100 µM |  | > 100 µM |
| CC(C)C[C@H]1C(=O)N2CCC[C@H]2[C@]2(O)O[C@](NC(=O)[C@@H]3C=C4c5cccc6[nH]c(Br)c(c56)C[C@H]4N(C)C3)(C(C)C)C(=O)N12 |  | > 100 µM |  | > 100 µM |  | > 100 µM |  | 23.5 µM |  | > 100 µM |  | > 100 µM |  | > 100 µM |  | > 100 µM |  | > 100 µM |  | > 100 µM |
| CNC12C3C4C1C1C2C3C41C(=O)N[C@H](C(=O)N(C)[C@H](C[C@@H](OC(C)=O)c1nc(C(=O)N[C@@H](Cc2ccccc2)C[C@H](C)C(=O)OC)cs1)C(C)C)C1CC1 (some centres undefined) | 1.53 µM | > 15 µM | 0.901 µM | > 15 µM | 2.73 µM | > 15 µM | 0.493 µM | 2.31 µM | 1.8 µM | 8.93 µM | 0.294 µM |  | 1.73 µM | > 14 µM | 0.322 µM | 0.93 µM | 0.129 µM | 2.73 µM | 0.21 µM | > 15 µM |
| O=C1c2ccccc2C(=O)c2sc(Nc3ccc(Cl)cc3)nc21 |  | 24.6 µM |  | 3.06 µM |  | 5.86 µM |  | 17.7 µM | 10.3 µM | 22.9 µM |  | 3.96 µM |  | 15.3 µM |  | 6.33 µM |  | 12.7 µM |  | 3.31 µM |
| Cc1cccc(C)c1NC(=O)CCCC(=O)C(C#N)c1ccc(Cl)cc1 (centres undefined) |  | > 100 µM |  | > 100 µM |  | > 100 µM |  | > 100 µM |  | > 100 µM |  | > 100 µM |  | > 100 µM |  | > 100 µM |  | > 100 µM |  | > 100 µM |
| Cc1[nH]c(=O)nc(N/N=C/c2ccc(Cl)cc2)c1C(=O)Nc1ccc(Cl)cc1 |  | > 63.1 µM |  | > 89.2 µM |  | > 90.9 µM |  | > 88.1 µM |  | 77.8 µM |  | 40.3 µM |  | > 100 µM |  | 67.6 µM |  | 14.6 µM |  | > 89.3 µM |
| C[CH2][Ge]([CH2]C)([CH2]C)[O]C(=O)C([O][Ge]([CH2]C)([CH2]C)[CH2]C)c1ccccc1 (centres undefined) | 12.7 µM | 56.4 µM | 15 µM | 51.3 µM | 19.2 µM | 44.9 µM | 22.1 µM | 55.7 µM | 4.32 µM | 45.9 µM | 17.1 µM | 44.2 µM | 25.7 µM | 88 µM | 17.1 µM | 40.5 µM | 18.3 µM | 62.7 µM | 18.9 µM | 42.2 µM |
| Cn1ccc2c3c(=O)cc[nH]c3ccc21 | > 100 µM | > 100 µM | > 100 µM | > 100 µM | 32.4 µM | 95.1 µM | > 100 µM | > 100 µM | 69.2 µM | > 100 µM | > 100 µM | > 100 µM | > 100 µM | > 100 µM | > 100 µM | > 100 µM | > 100 µM | > 100 µM | > 100 µM | > 100 µM |
| COc1ccc(C2CC(c3cccc(OC)c3)=NN2C(=O)c2cc(OC)c(OC)c(OC)c2)cc1 (centres undefined) | 2.25 µM | > 100 µM | 5.54 µM | > 100 µM | 1.22 µM | > 100 µM | 1.19 µM | 5.53 µM | 1.04 µM | > 100 µM | 1.56 µM | > 29.3 µM |  | > 100 µM | 1.62 µM | 5.3 µM | 0.624 µM | > 100 µM | 0.881 µM | > 100 µM |
| C[n+]1cc2cc3c(cc2c2ccccc21)OCO3 | 2.41 µM | 14.4 µM | 41.7 µM | > 100 µM | 46.4 µM | > 100 µM | 4.48 µM | 24 µM | 2.77 µM | 23.8 µM | 16 µM | > 100 µM | 2.4 µM | 32.2 µM | 4.83 µM | 23.8 µM | 2.22 µM | 9.6 µM | 4.52 µM | > 100 µM |
| Cc1cccc2c(N=Nc3ccccc3[N+](=O)[O-])c(O)[nH]c12 |  | > 61.7 µM |  | 18.8 µM |  | 16.3 µM |  | > 63.5 µM |  | 8.16 µM |  | > 100 µM |  | > 39.7 µM |  | 8.96 µM |  | 31.9 µM |  | > 74.6 µM |
| N=C1N=C(N)S/C1=C\c1ccc2ncccc2c1 | > 25 µM | > 25 µM | > 25 µM | > 25 µM | > 25 µM | > 25 µM | > 25 µM | > 25 µM | > 25 µM | > 25 µM | > 25 µM | > 25 µM | > 25 µM | > 25 µM | > 25 µM | > 25 µM | > 16.3 µM | > 25 µM | > 25 µM | > 25 µM |
